In the assay the test system is test plant species. As to the kind of experiment: Post-emergent herbicidal activity test (greenhouse, foliar spray, visual growth reduction). In kind it is in vivo. The conditions noted are these: post-emergence, 336 h, 140 g ai/ha. The protocol:
Post-emergent Test: Seeds or nutlets of the desired test plant species were planted in Sun Gro Metro-Mix® 360 planting mixture, which typically has a pH of 6.0 to 6.8 and an organic matter content of about 30 percent, in plastic pots with a surface area of 64 square centimeters. In some aspects, to ensure good germination and healthy plants, a fungicide treatment and/or other chemical or physical treatment was applied. The plants were grown for 7-21 d in a greenhouse with an approximate 15 h photoperiod which was maintained at 23-29° C. during the day and 22-28° C. during the night. Nutrients and water were added on a regular basis and supplemental lighting was provided with overhead metal halide 1000-Watt lamps as necessary. Plants were used for testing when they reached the first or second true leaf stage. A weighed amount, determined by the highest rate to be tested, of each test compound was placed in a 25 mL glass vial and was dissolved in 4 mL of a 97:3 v/v mixture of acetone and DMSO to obtain concentrated stock solutions. […] The concentrated stock solutions obtained were diluted with 20 mL of an aqueous mixture containing acetone, water, isopropyl alcohol, DMSO, […] crop oil concentrate, and X-77 surfactant in a 48.5:39:10:1.5:1.0:0.02 v/v ratio to obtain spray solutions containing the application rate. Compound requirements are based upon a 12 mL application volume at a rate of 187 liters per hectare (L/ha). Formulated compounds were applied to the plant material with an overhead Mandel track sprayer equipped with […] nozzles calibrated to deliver 187 L/ha over an application area of 0.64 square meters at a spray height of 18 inches (43 cm) above the average plant canopy height. Control plants were sprayed in the same manner with the solvent blank. The treated plants and control plants were placed in a greenhouse as described above and watered by subirrigation to prevent wash-off of the test compounds. After 14 d, the condition of the test plants as compared with that of the nontreated and control plants was determined visually and scored on a scale of 0 to 100 percent where 0 corresponds to no injury and 100 corresponds to complete control. In the reporting of the results, Table A: Percent Growth Reduction Conversion Table was used.

[1] abbreviates: ALOMY: blackgrass (Alopecurus myosuroides), 14 days after application, read-out: Visual Growth Reduction (%) 14 Days After Application, ALOMY.
Where [2] appears, read: AMARE: redroot pigweed (Amaranthus retroflexus), 14 days after application, read-out: Visual Growth Reduction (%) 14 Days After Application, AMARE.
[3] abbreviates: AVEFA: wild oat (Avena fatua), 14 days after application, read-out: Visual Growth Reduction (%) 14 Days After Application, AVEFA.
Setting [4] is: CHEAL: lambsquarters (Chenopodium album), 14 days after application, read-out: Visual Growth Reduction (%) 14 Days After Application, CHEAL.
[5] abbreviates: CIRAR: canada thistle (Cirsium arvense), 14 days after application, read-out: Visual Growth Reduction (%) 14 Days After Application, CIRAR.
Where [6] appears, read: CYPES: yellow nutsedge (Cyperus esculentus), 14 days after application, read-out: Visual Growth Reduction (%) 14 Days After Application, CYPES.
[7] abbreviates: DIGSA: crabgrass (Digitaria sanguinalis), 14 days after application, read-out: Visual Growth Reduction (%) 14 Days After Application, DIGSA.
The mark [8] stands for this setting: barnyardgrass (Echinochloa crus-galli), 14 Days After Application, read-out: Visual Growth Reduction (%) ECHCG.
Where [9] appears, read: common chickweed (Stellaria media), 14 Days After Application, read-out: Visual Growth Reduction (%) STEME.
Setting [10] is: giant foxtail (Setaria faberi), 14 Days After Application, read-out: Visual Growth Reduction (%) SETFA.
Setting [11] is: ivy-leaf morning glory (Ipomoea hederacea), 14 Days After Application, read-out: Visual Growth Reduction (%) IPOHE.
The mark [12] stands for this setting: johnsongrass (Sorghum vulgare), 14 Days After Application, read-out: Visual Growth Reduction (%) SORVU.
[13] abbreviates: kochia (Bassia scoparia), 14 Days After Application, read-out: Visual Growth Reduction (%) KCHSC.
Setting [14] is: rice (Oryza sativa), 14 Days After Application, read-out: Visual Growth Reduction (%) ORYSA.
Where [15] appears, read: wheat, spring (Triticum aestivum), 14 Days After Application, read-out: Visual Growth Reduction (%) TRZAS.

Structures are written as SMILES. Read-outs that look alike come from different tables or passages of the source.

Consider `COC(=O)c1nc(-c2ccc(C(F)(F)F)nc2Cl)ccc1Cl` [F8, Methyl 2′,5-dichloro-6′-(trifluoromethyl)-[2,3′-bipyridine]-6-carboxylate], for which the pest or weed control at 140 g/ha lay in the range of 0 to 29% under setting [1]; 95 to 100% under setting [2]; 0 to 29% under setting [3]; 95 to 100% under setting [4]; 85 to 94% under setting [5]; 45 to 59% under setting [6]. The pest or weed control at 140 g/ha runs as follows: under setting [7], 60 to 74%; under setting [8], 30 to 44%; under setting [9], 0 to 29%; under setting [10], 0 to 29%; under setting [11], 95 to 100%; under setting [12], 85 to 94%. Besides, the pest or weed control at 140 g/ha reads like this: under setting [13], 85 to 94%; under setting [14], 0 to 29%; under setting [15], 30 to 44%.

For the compound `COC(=O)c1nc(-c2ccc(C(F)(F)F)cc2Cl)ccc1C(F)(F)F` [F9, Methyl 6-(2-chloro-4-(trifluoromethyl)phenyl)-3-(trifluoromethyl) picolinate], the pest or weed control at 140 g/ha was in the range of 0 to 29% under setting [1]; 30 to 44% under setting [2]; 0 to 29% under setting [3]; 0 to 29% under setting [4]; 0 to 29% under setting [5]; 0 to 29% under setting [6]. Also, the pest or weed control at 140 g/ha lay within 0 to 29% under setting [7]; 0 to 29% under setting [8]; 0 to 29% under setting [9]; 0 to 29% under setting [10]; 45 to 59% under setting [11]; 0 to 29% under setting [12]. Moreover, the pest or weed control at 140 g/ha is 0 to 29% under setting [13], 0 to 29% under setting [14] and 0 to 29% under setting [15].

With `COC(=O)c1nc(-c2ccc(C(F)(F)F)cc2Cl)ccc1C#N` [F10, Methyl 6-(2-chloro-4-(trifluoromethyl)phenyl)-3-cyanopicolinate], the pest or weed control at 140 g/ha runs as follows: under setting [1], 0 to 29%; under setting [2], 30 to 44%; under setting [3], 0 to 29%; under setting [4], 45 to 59%; under setting [5], 30 to 44%; under setting [6], 45 to 59%. The pest or weed control at 140 g/ha is 45 to 59% under setting [7]; 0 to 29% under setting [8]; 0 to 29% under setting [9]; 0 to 29% under setting [10]; 60 to 74% under setting [11]; 30 to 44% under setting [12]. Moreover, the pest or weed control at 140 g/ha is, setting by setting: under setting [13], 0 to 29%; under setting [14], 0 to 29%; under setting [15], 0 to 29%.

Take `COC(=O)c1nc(-c2ccc(C(F)(F)F)cc2Cl)cc(C#N)c1Cl` [F11, Methyl 3-chloro-6-(2-chloro-4-(trifluoromethyl)phenyl)-4-cyanopicolinate]: the pest or weed control at 140 g/ha was in the range of 0 to 29% under setting [1]; 0 to 29% under setting [2]; 0 to 29% under setting [3]; 0 to 29% under setting [4]; 30 to 44% under setting [5]; 0 to 29% under setting [6]. Besides, the pest or weed control at 140 g/ha reads like this: under setting [7], 0 to 29%; under setting [8], 0 to 29%; under setting [10], 0 to 29%; under setting [11], 30 to 44%; under setting [12], 0 to 29%; under setting [13], 0 to 29%. The pest or weed control at 140 g/ha is 0 to 29% under setting [14] and 0 to 29% under setting [15].

Regarding `COC(=O)c1nc(-c2ccc(C(F)(F)F)cc2F)ccc1Cl` [F12, Methyl 3-chloro-6-(2-fluoro-4-(trifluoromethyl)phenyl)picolinate], the pest or weed control at 140 g/ha lay within 0 to 29% under setting [1]; 85 to 94% under setting [2]; 0 to 29% under setting [3]; 95 to 100% under setting [4]; 60 to 74% under setting [5]; 60 to 74% under setting [6]. The pest or weed control at 140 g/ha under setting [7] was in the range of 75 to 84%; the pest or weed control at 140 g/ha under setting [8] lay in the range of 0 to 29%; the pest or weed control at 140 g/ha under setting [9] fell in the range of 0 to 29%; the pest or weed control at 140 g/ha under setting [10] was 0 to 29%; the pest or weed control at 140 g/ha under setting [11] was 95 to 100%; the pest or weed control at 140 g/ha under setting [12] lay in the range of 75 to 84%. For the same compound, the pest or weed control at 140 g/ha runs as follows: under setting [13], 0 to 29%; under setting [14], 0 to 29%; under setting [15], 0 to 29%.

Regarding `COC(=O)c1nc(-c2ccc(C3CC3(F)F)cc2Cl)ccc1Cl` (centres unmarked) [F13, methyl 3-chloro-6-(2-chloro-4-(2,2 difluorocyclopropyl)phenyl) picolinate], the pest or weed control at 140 g/ha is, setting by setting: under setting [1], 0 to 29%; under setting [2], 75 to 84%; under setting [3], 0 to 29%; under setting [4], 85 to 94%; under setting [5], 85 to 94%; under setting [6], 0 to 29%. Besides, the pest or weed control at 140 g/ha by setting is: under setting [7], 0 to 29%; under setting [8], 0 to 29%; under setting [9], 0 to 29%; under setting [10], 0 to 29%; under setting [11], 95 to 100%; under setting [12], 60 to 74%. The pest or weed control at 140 g/ha reads like this: under setting [13], 60 to 74%; under setting [14], 0 to 29%; under setting [15], 0 to 29%.

`COC(=O)c1nc(-c2ccc(C(C)F)cc2Cl)ccc1Cl` (centres unmarked) [F14, methyl 3-chloro-6-(2-chloro-4-(1-fluoroethyl)phenyl)-picolinate]: the pest or weed control at 140 g/ha fell in the range of 0 to 29% under setting [1]; 0 to 29% under setting [2]; 0 to 29% under setting [3]; 85 to 94% under setting [4]; 0 to 29% under setting [5]; 0 to 29% under setting [6]. In addition, the pest or weed control at 140 g/ha lay within 0 to 29% under setting [7]; 0 to 29% under setting [8]; 0 to 29% under setting [9]; 0 to 29% under setting [10]; 45 to 59% under setting [11]; 0 to 29% under setting [12]. The pest or weed control at 140 g/ha under setting [13] lay in the range of 85 to 94%, the pest or weed control at 140 g/ha under setting [14] fell in the range of 0 to 29% and the pest or weed control at 140 g/ha under setting [15] lay in the range of 0 to 29%.

The record behind these values is patent US20230017045A1, “PYRIDINE AND PYRIMIDINE CARBOXYLATE HERBICIDES AND METHODS OF USE THEREOF” (Dow AgroSciences LLC, priority 2017, published 2023).
